From patent US4952578A, “Cephem compound and a process for preparation thereof” (Fujisawa Pharmaceutical Co., Ltd., priority 1987, dated 1990)
In brackets after ≈: the same amount, converted by molar mass.

Tested on: P. aeruginosa 26
Test: In vitro antibacterial activity (MIC) by two-fold agar-plate dilution method
Assay type: cell-based
Conditions: Pseudomonas aeruginosa, HI-agar, 37° C., 20 hours, read-out: MIC (minimal inhibitory concentration)
Protocol: Now in order to show the utility of the object compound [I], the test data on MIC (minimal inhibitory concentration) of representative compound [I] of this invention is shown in the following.
In vitro antibacterial activity was determined by the two-fold agar-plate dilution method as described below.
One loopful of an overnight culture of each test strain in Trypticase-soy broth (10^8 viable cells per ml) was streaked on heart infusion agar (HI-agar) containing graded concentrations of representative test compound, and the minimal inhibitory concentration (MIC) was expressed in terms of μg/ml after incubation at 37° C. for 20 hours.

MIC: 0.39 µg/mL (≈ 0.746 µM)
Structure (SMILES): CO/N=C(\C(=O)N[C@@H]1C(=O)N2C(C(=O)[O-])=C(C[n+]3ccc(N)n3CCO)CS[C@H]12)c1csc(N)n1 [Test Compound (1), 7β-[2-(2-Aminothiazol-4-yl)-2-methoxyiminoacetamido]-3-[3-amino-2-(2-hydroxyethyl)-1-pyrazolio]methyl-3-cephem-4-carboxylate (syn isomer)]
